Results published in patent publication US9149532B2, “Pharmaceutical composition” (DAIICHI SANKYO COMPANY, LIMITED, priority 2007, dated 2015).

Columns and labels:
[1] = Absorbability after oral administration; format: in vivo; settings: orally administered to a subject
[2] = Solubility of compound (1) in aqueous solutions; format: physicochemical

## CN1CCc2nc(C(=O)N[C@@H]3C[C@@H](C(=O)N(C)C)CC[C@@H]3NC(=O)C(=O)Nc3ccc(Cl)cn3)sc2C1 [compound (1), N^1-(5-chloropyridin-2-yl)-N^2-(4-[(dimethylamino)carbonyl]-2-{[(5-methyl-4,5,6,7-tetrahydrothiazolo[5,4-c]pyridin-2-yl)carbonyl]amino}cyclohexyl)ethanediamide]
[1]
  absorbability: excellent absorbability
[2]; neutral pH aqueous solution (e.g., neutral buffer solution)
  solubility: solubility decreases
[2]; strong acidic aqueous solution
  solubility: high solubility
